Assay results taken from ChEMBL document CHEMBL1629669, “Two clinical strains of Klebsiella pneumoniae carrying plasmid-borne blaIMP-4, blaSHV-12, and armA isolated at a Pediatric Center in Shanghai, China” (2009).
Values after ≈ are worked out from the molar mass of the structure shown.

Key:
Assay type in all cases: functional
[1] = test system: Klebsiella pneumoniae; test: Antimicrobial activity against multidrug resistant Klebsiella pneumoniae isolate KpSCMC1 harboring int1, bla IMP-4, bla SHV-12, armA and sul1 gene isolated from patient with pulmonary infection by disk diffusion method
[2] = test system: Klebsiella pneumoniae; test: Antimicrobial activity against multidrug resistant Klebsiella pneumoniae isolate KpSCMC2 harboring int1, bla IMP-4, bla SHV-12, armA and sul1 gene isolated from patient with pulmonary infection by disk diffusion method
[3] = test system: Klebsiella pneumoniae; test: Antimicrobial activity against carbapenem susceptible Klebsiella pneumoniae isolate KpSCMC2c harboring bla SHV-12 gene isolated from patient with pulmonary infection by disk diffusion method
[4] = test system: Klebsiella pneumoniae; test: Antimicrobial activity against multidrug resistant Klebsiella pneumoniae isolate KpSCMC1 harboring int1, bla IMP-4, bla SHV-12, armA and sul1 gene isolated from patient with pulmonary infection by Etest method
[5] = test system: Klebsiella pneumoniae; test: Antimicrobial activity against multidrug resistant Klebsiella pneumoniae isolate KpSCMC2 harboring int1, bla IMP-4, bla SHV-12, armA and sul1 gene isolated from patient with pulmonary infection by Etest method
[6] = test system: Klebsiella pneumoniae; test: Antimicrobial activity against carbapenem susceptible Klebsiella pneumoniae isolate KpSCMC2c harboring bla SHV-12 gene isolated from patient with pulmonary infection by Etest method

SMILES | inhibition zone (IZ) [1] [mm] | inhibition zone (IZ) [2] [mm] | inhibition zone (IZ) [3] [mm] | MIC [4] [µg/mL] | MIC [5] [µg/mL] | MIC [6] [µg/mL]
C[C@@H](O)[C@H]1C(=O)N2C(C(=O)O)=C(SCCNC=N)C[C@H]12 [IMIPENEM ANHYDROUS] | 21 | 20 | 26 | 3 (≈ 10 µM) | 2 (≈ 6.68 µM) | 0.064 (≈ 0.214 µM)
C[C@@H](O)[C@H]1C(=O)N2C(C(=O)O)=C(S[C@@H]3CN[C@H](C(=O)N(C)C)C3)[C@H](C)[C@H]12 [MEROPENEM] | 14 | 13 | 27 | 8 (≈ 20.9 µM) | 4 (≈ 10.4 µM) | 0.25 (≈ 0.652 µM)
